Assay results as given in PubChem BioAssay (NCI).
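Results reflect a 48-hour exposure of cells in 96-well plates to compound at five concentrations. TGI marks complete inhibition of growth.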

Columns and labels:
Test in all cases: DTP human tumour cell line panel, 48 h
HCT-116 colon = system: HCT-116 colon
HOP-92 NSCLC = system: HOP-92 NSCLC
MOLT-4 leukemia = system: MOLT-4 leukemia
ACHN renal = system: ACHN renal
RPMI-8226 leukemia = system: RPMI-8226 leukemia
MDA-MB-231 breast = system: MDA-MB-231 breast
SK-OV-3 ovarian = system: SK-OV-3 ovarian
HL-60(TB) leukemia = system: HL-60(TB) leukemia
HOP-62 NSCLC = system: HOP-62 NSCLC
K-562 leukemia = system: K-562 leukemia
NCI/ADR-RES ovarian = system: NCI/ADR-RES ovarian
NCI-H226 lung = system: NCI-H226 lung
HS 578T breast = system: HS 578T breast
SK-MEL-5 melanoma = system: SK-MEL-5 melanoma
HCC-2998 colon = system: HCC-2998 colon
BT-549 breast = system: BT-549 breast
SR leukemia = system: SR leukemia
NCI-H23 lung = system: NCI-H23 lung
IGROV1 ovarian = system: IGROV1 ovarian
SNB-75 CNS = system: SNB-75 CNS
U251 CNS = system: U251 CNS
786-0 renal = system: 786-0 renal
A549 NSCLC = system: A549 NSCLC
SW-620 colon = system: SW-620 colon
M14 melanoma = system: M14 melanoma
COLO 205 colon = system: COLO 205 colon
OVCAR-8 ovarian = system: OVCAR-8 ovarian
SK-MEL-2 melanoma = system: SK-MEL-2 melanoma
LOX IMVI melanoma = system: LOX IMVI melanoma
SF-539 CNS = system: SF-539 CNS
UO-31 renal = system: UO-31 renal
CCRF-CEM leukemia = system: CCRF-CEM leukemia
MDA-N = system: MDA-N
PC-3 prostate = system: PC-3 prostate
HCT-15 colon = system: HCT-15 colon
SN12C renal = system: SN12C renal
NCI-H522 lung = system: NCI-H522 lung
OVCAR-4 ovarian = system: OVCAR-4 ovarian
HT29 colon = system: HT29 colon
SK-MEL-28 melanoma = system: SK-MEL-28 melanoma
A498 renal = system: A498 renal
UACC-257 melanoma = system: UACC-257 melanoma
MDA-MB-435 = system: MDA-MB-435
UACC-62 melanoma = system: UACC-62 melanoma
OVCAR-3 ovarian = system: OVCAR-3 ovarian
SNB-19 CNS = system: SNB-19 CNS
RXF 393 renal = system: RXF 393 renal
TK-10 renal = system: TK-10 renal
SF-295 CNS = system: SF-295 CNS
KM12 colon = system: KM12 colon
OVCAR-5 ovarian = system: OVCAR-5 ovarian
CAKI-1 renal = system: CAKI-1 renal
MALME-3M melanoma = system: MALME-3M melanoma
EKVX NSCLC = system: EKVX NSCLC
NCI-H460 lung = system: NCI-H460 lung
MCF7 breast = system: MCF7 breast

## C=C(C)[C@@H]1CC[C@]2(COC(C)=O)CC[C@]3(C)[C@H](CC[C@@H]4[C@@]5(C)CC[C@H](OC(C)=O)C(C)(C)[C@@H]5CC[C@]43C)[C@@H]12
HCT-116 colon
  TGI: > 50 µM
HOP-92 NSCLC
  TGI: > 50 µM
MOLT-4 leukemia
  TGI: > 50 µM
ACHN renal
  TGI: > 50 µM
RPMI-8226 leukemia
  TGI: > 50 µM
MDA-MB-231 breast
  TGI: > 50 µM
SK-OV-3 ovarian
  TGI: > 50 µM
HL-60(TB) leukemia
  TGI: > 50 µM
HOP-62 NSCLC
  TGI: > 50 µM
K-562 leukemia
  TGI: > 50 µM
NCI/ADR-RES ovarian
  TGI: > 50 µM
NCI-H226 lung
  TGI: > 50 µM
HS 578T breast
  TGI: > 50 µM
SK-MEL-5 melanoma
  TGI: > 50 µM
HCC-2998 colon
  TGI: 1.67 µM
BT-549 breast
  TGI: > 50 µM
SR leukemia
  TGI: > 50 µM
NCI-H23 lung
  TGI: > 50 µM
IGROV1 ovarian
  TGI: > 50 µM
SNB-75 CNS
  TGI: > 50 µM
U251 CNS
  TGI: > 50 µM
786-0 renal
  TGI: > 50 µM
A549 NSCLC
  TGI: > 50 µM
SW-620 colon
  TGI: > 50 µM
M14 melanoma
  TGI: > 50 µM
COLO 205 colon
  TGI: > 50 µM
OVCAR-8 ovarian
  TGI: > 50 µM
SK-MEL-2 melanoma
  TGI: > 50 µM
LOX IMVI melanoma
  TGI: > 50 µM
SF-539 CNS
  TGI: > 50 µM
UO-31 renal
  TGI: > 50 µM
CCRF-CEM leukemia
  TGI: > 50 µM
MDA-N
  TGI: > 50 µM
PC-3 prostate
  TGI: > 50 µM
HCT-15 colon
  TGI: > 50 µM
SN12C renal
  TGI: > 50 µM
NCI-H522 lung
  TGI: > 50 µM
OVCAR-4 ovarian
  TGI: > 50 µM
HT29 colon
  TGI: > 50 µM
SK-MEL-28 melanoma
  TGI: > 50 µM
A498 renal
  TGI: > 50 µM
UACC-257 melanoma
  TGI: > 50 µM
MDA-MB-435
  TGI: > 50 µM
UACC-62 melanoma
  TGI: > 50 µM
OVCAR-3 ovarian
  TGI: > 50 µM
SNB-19 CNS
  TGI: > 50 µM

## O=C1Nc2c(Cl)cc(Cl)cc2/C1=N/N=C/c1ccccc1O
HCT-116 colon
  TGI: 32.1 µM
HOP-92 NSCLC
  TGI: 62.8 µM
RXF 393 renal
  TGI: 50.7 µM
MOLT-4 leukemia
  TGI: 62.5 µM
TK-10 renal
  TGI: > 100 µM
SF-295 CNS
  TGI: 47.7 µM
ACHN renal
  TGI: > 100 µM
MDA-MB-231 breast
  TGI: 54.7 µM
SK-OV-3 ovarian
  TGI: 88.1 µM
HL-60(TB) leukemia
  TGI: 49.7 µM
HOP-62 NSCLC
  TGI: 41.3 µM
K-562 leukemia
  TGI: 68.1 µM
NCI/ADR-RES ovarian
  TGI: 51.7 µM
NCI-H226 lung
  TGI: 74.6 µM
KM12 colon
  TGI: 68.4 µM
HS 578T breast
  TGI: 72.2 µM
SK-MEL-5 melanoma
  TGI: 47.5 µM
HCC-2998 colon
  TGI: 34.3 µM
BT-549 breast
  TGI: 35.7 µM
OVCAR-5 ovarian
  TGI: 48.7 µM
SR leukemia
  TGI: 46.5 µM
NCI-H23 lung
  TGI: 40.3 µM
CAKI-1 renal
  TGI: 47.4 µM
IGROV1 ovarian
  TGI: 85.8 µM
SNB-75 CNS
  TGI: 48.2 µM
U251 CNS
  TGI: 36.1 µM
786-0 renal
  TGI: 40.9 µM
MALME-3M melanoma
  TGI: 88.4 µM
A549 NSCLC
  TGI: 88.4 µM
SW-620 colon
  TGI: 59.3 µM
M14 melanoma
  TGI: 49.8 µM
COLO 205 colon
  TGI: 31.4 µM
EKVX NSCLC
  TGI: 91.5 µM
NCI-H460 lung
  TGI: 34.4 µM
MCF7 breast
  TGI: 94.2 µM
OVCAR-8 ovarian
  TGI: > 100 µM
SK-MEL-2 melanoma
  TGI: 39.9 µM
LOX IMVI melanoma
  TGI: 31.8 µM
SF-539 CNS
  TGI: 41.6 µM
UO-31 renal
  TGI: > 100 µM
CCRF-CEM leukemia
  TGI: 58.7 µM
MDA-N
  TGI: 35.1 µM
PC-3 prostate
  TGI: 53.5 µM
HCT-15 colon
  TGI: 51 µM
SN12C renal
  TGI: 34.9 µM
OVCAR-4 ovarian
  TGI: > 100 µM
HT29 colon
  TGI: 40.4 µM
SK-MEL-28 melanoma
  TGI: 40.3 µM
A498 renal
  TGI: 36.9 µM
UACC-257 melanoma
  TGI: 66.3 µM
MDA-MB-435
  TGI: 51.6 µM
UACC-62 melanoma
  TGI: 32.1 µM
OVCAR-3 ovarian
  TGI: 34 µM
SNB-19 CNS
  TGI: > 100 µM
